Reference: patent US5192756A, “Aminosterol antibiotic” (The Children's Hospital of Pennsylvania, priority 1992, dated 1993)
Values after ≈ are worked out from the molar mass of the structure shown. No end group written: not given here.

Experiments:
[1] = tested on: E. coli; experiment: Minimal inhibitory concentration, E. coli; assay type: cell-based; settings: E. coli ATCC 25922, 1/2×TSB, 37° C., 18 to 24 hours; for MIC: Escherichia coli, ATCC25922
Method: (§1) Squalamine was assayed in vitro against several microbial organisms to evaluate its spectrum of activity.
(§2) Minimal inhibitory concentrations for the bacteria and yeast were determined by incubating 0.9-11×10^5 colony-forming units/ml of log-phase organisms in 1/2×tryptica soy broth (TSB) with increasing concentrations of sample in static 96-2311 microtiter plates (Corning, Inc., Corning, N.Y.) at 37° C. for 18 to 24 hours. The minimal inhibitory concentration is the concentration of sample at which no growth was observed. Control incubation in the absence of […] served to set a baseline value.
(§3) Initial sample concentrations were 2 mg/ml in 250 mM sodium acetate pH 6.6, 11.2 mM HCl, except taurolithocholic acid 3-sulfate which was 2 mg/ml in 50 mM sodium acetate, and squalamine to which HCl was not added because it was acidic following the last step of purification. Spermidine HCl, taurolithocholic acid 3-sulfate, melittin, holothurin and ampicillin were purchased from Sigma (St. Louis, Miss.). CHAPS (3-[(3-cholamidopropyl)dimethylammonio]-1-propane sulfonate dihydrate) was purchased from Aldrich (Milwaukee, Wis.). Conessine was purchased from Aldrich Rare Chemicals Division (Milwaukee, Wis.). Magainin-II amide and CPF-amide were made by Magainin Pharmaceuticals, Inc. (Plymouth Meeting, Penn.). The CPF peptide used in the assay has the sequence […]-NH2. (Richter, K., et al., J. Biol. Chem. 261, 3676-3680 (1986).

[2] = tested on: Staph. aureus; experiment: Minimal inhibitory concentration, Staph. aureus; assay type: cell-based; settings: Staph. aureus ATCC 29213, 1/2×TSB, 37° C., 18 to 24 hours; for MIC: Staphylococcus aureus, ATCC29213
Method: as §1, §2, §3

[3] = tested on: Pseudomonas aeruginosa; experiment: Minimal inhibitory concentration, Pseudomonas aeruginosa; assay type: cell-based; settings: Pseudomonas aeruginosa ATCC 27853, 1/2×TSB, 37° C., 18 to 24 hours; for MIC: ATCC27853
Method: as §1, §2, §3

[4] = tested on: Strep. faecalis; experiment: Minimal inhibitory concentration, Strep. faecalis; assay type: cell-based; settings: Strep. faecalis ATCC 29212, 1/2×TSB, 37° C., 18 to 24 hours; for MIC: Enterococcus faecalis, ATCC29212
Method: as §1, §2, §3

[5] = tested on: Candida albicans; experiment: Minimal inhibitory concentration, Candida albicans; assay type: cell-based; settings: for MIC: ATCC14053; for MIC / Minimal Inhibitory Concentration: Candida albicans ATCC 14053, 1/2×TSB, 37° C., 18 to 24 hours
Method: as §1, §2, §3

[6] = tested on: Proteus vulgaris; experiment: Minimal inhibitory concentration, Proteus vulgaris; assay type: cell-based; settings: Proteus vulgaris ATCC 13315, 1/2×TSB, 37° C., 18 to 24 hours; for MIC: ATCC13315
Method: as §1, §2, §3

[7] = tested on: Serratia marcescens; experiment: Minimal inhibitory concentration, Serratia marcescens; assay type: cell-based; settings: Serratia marcescens ATCC 8100, 1/2×TSB, 37° C., 18 to 24 hours; for MIC: ATCC8100
Method: as §1, §2, §3

[8] = tested on: Paramecium caudatum; experiment: Minimal disruptive concentration, Paramecium caudatum; assay type: cell-based; settings: for MIC / Minimal Inhibitory Concentration (minimal disruptive concentration for the protozoa): 1% trypticase soy broth, light microscopy for ten minutes; for MIC: read-out: Minimal Inhibitory Concentration (minimal disruptive concentration for the protozoa)
Method: as §1, §3
(§4) Minimal disruptive concentration (the concentration at which physical disruption of the protozoa occurred) was determined for the protozoa by adding […] of sample (in sodium acetate as above) to […] of 1% trypticase soy broth containing P. caudatum (Nasco, Fort Atkinson, Wiss,). Organisms were observed by light microscopy for ten minutes.

[9] = Hemolytic activity against human erythrocytes; assay type: cell-based; settings: human; 92 μg/ml; 10% erythrocytes in PBS, 37° C., ten minutes; Triton X-100 = 100%
Method: (§5) Because of its structural resemblance to steroidal detergents, squalamine was assayed for its hemolytic activity against human erythrocytes.
(§6) Each sample was diluted in H2 O and was added to a 10% (vol/vol) suspension of human erythrocytes in phosphate buffered saline (PBS). Erythrocytes were collected with heparin and washed once in 1×PBS before the assay. Samples were incubated at 37° C. for ten minutes, centrifuged at 12,000× g for one minute, and the OD350 of the supernatant was measured. Addition of Triton X-100 (final concentration 0.1%) defined 100% hemolysis.

[10] = tested on: several microbial organisms; experiment: In vitro antimicrobial spectrum (bacteria, fungi, protozoa), in words; assay type: cell-based; settings: for antibiotic activity (in words): bacteria, fungi, protozoa, concentration range studied
Method: as §1, §2, §3, §4

[11] = tested on: human erythrocytes; experiment: Hemolytic activity against human erythrocytes; assay type: cell-based
Method: as §5, §6

[12] = tested on: E. coli D31; experiment: Protease resistance of antimicrobial activity (proteinase K); assay type: in vitro ADME; settings: proteinase K 2 mg/ml, one hour, 37° C.; E. coli D31 lawn
Method: Proteinase K (final concentration 2 mg/ml) was added to 0.2 μg/μl squalamine or 0.8 μg/μl magainin II amide in 1×phosphate-buffered saline. After a one hour incubation at 37° C., 2 μl of each sample was applied to the lawn of E. coli D31.

Compound | MIC [1] | MIC [2] | MIC [3] | MIC [4] | MIC [5] | MIC [6] | MIC [7] | MIC [8] | hemolysis at 10 min [9] | antibiotic activity (in words) [10] | Minimal Inhibitory Concentration [1] | Minimal Inhibitory Concentration [2] | Minimal Inhibitory Concentration [3] | Minimal Inhibitory Concentration [4] | Minimal Inhibitory Concentration [5] | Minimal Inhibitory Concentration [6] | Minimal Inhibitory Concentration [7] | Minimal Inhibitory Concentration (minimal disruptive concentration for the protozoa) [8] | also measured
CC1(C)S[C@@H]2[C@H](NC(=O)[C@H](N)c3ccccc3)C(=O)N2[C@H]1C(=O)O [Ampicillin, ampicillin] | 2 to 4 µg/mL (≈ 5.72 to 11.4 µM) | 1 µg/mL (≈ 2.86 µM) | 62 to 125 µg/mL (≈ 177 to 358 µM) | < 0.25 µg/mL | > 125 µg/mL | 8 to 16 µg/mL (≈ 22.9 to 45.8 µM) | 4 to 62 µg/mL (≈ 11.4 to 177 µM) | > 65 µg/mL | < 0.5% |  |  |  |  |  |  |  |  |  | 
C[C@H](CCC(=O)NCCC[N+](C)(C)CCCS(=O)(=O)[O-])[C@H]1CC[C@H]2[C@@H]3[C@H](O)C[C@@H]4C[C@H](O)CC[C@]4(C)[C@H]3C[C@H](O)[C@]12C [CHAPS, 3-[(3-cholamidopropyl)dimethylammonio]-1-propane sulfonate dihydrate] | > 500 µg/mL | > 500 µg/mL | > 500 µg/mL | 250 to 500 µg/mL | > 500 µg/mL | > 500 µg/mL | > 500 µg/mL | > 260 µg/mL | < 0.5% | inactive as an antibiotic |  |  |  |  |  |  |  |  | 
C[C@H]1[C@H]2CC[C@H]3[C@@H]4CC=C5C[C@@H](N(C)C)CC[C@]5(C)[C@H]4CC[C@]23CN1C [Conessine] | > 500 µg/mL | > 500 µg/mL | > 500 µg/mL | > 500 µg/mL | 31 to 62 µg/mL (≈ 86.9 to 174 µM) | > 500 µg/mL | > 500 µg/mL | 16 to 33 µg/mL (≈ 44.9 to 92.5 µM) | < 0.5% |  |  |  |  |  |  |  |  |  | antifungal activity (in words) ([5]; Candida): exhibits antifungal (Candida) and antiprotozoan (Paramecium caudatum) activity; antiprotozoan activity (in words) [8]: exhibits antifungal (Candida) and antiprotozoan (Paramecium caudatum) activity; antibacterial activity (in words) ([10]; bacteria of Table I): lacks antibacterial activity
CC[C@H](C)[C@H](NC(=O)CN)C(=O)NCC(=O)N[C@@H](C)C(=O)N[C@H](C(=O)N[C@@H](CC(C)C)C(=O)N[C@@H](CCCCN)C(=O)N[C@H](C(=O)N[C@@H](CC(C)C)C(=O)N[C@H](C(=O)N[C@H](C(=O)NCC(=O)N[C@@H](CC(C)C)C(=O)N1CCC[C@H]1C(=O)N[C@@H](C)C(=O)N[C@@H](CC(C)C)C(=O)N[C@H](C(=O)N[C@@H](CO)C(=O)N[C@@H](Cc1c[nH]c2ccccc12)C(=O)N[C@H](C(=O)N[C@@H](CCCCN)C(=O)N[C@@H](CCCNC(=N)N)C(=O)N[C@@H](CCCCN)C(=O)N[C@@H](CCCNC(=N)N)C(=O)N[C@@H](CCC(N)=O)C(=O)N[C@@H](CCC(N)=O)C(N)=O)[C@@H](C)CC)[C@@H](C)CC)[C@@H](C)O)[C@@H](C)O)C(C)C)C(C)C [Melittin] |  |  |  |  |  |  |  |  |  |  | 8 to 16 µg/mL | 8 to 16 µg/mL | 16 to 31 µg/mL | 4 to 16 µg/mL | 16 to 31 µg/mL | 16 to 31 µg/mL | > 250 µg/mL | 2 to 4 µg/mL | antibiotic versus hemolytic concentration / selectivity (in words) ([11]; antibiotic activity compared with erythrocyte disruption): fall within a similar concentration range
NCCCCNCCCN [Spermidine] | > 500 µg/mL | > 500 µg/mL | > 500 µg/mL | 250 to 500 µg/mL (≈ 1720 to 3440 µM) | > 500 µg/mL | > 500 µg/mL | > 500 µg/mL | > 260 µg/mL | < 0.5% | inactive as an antibiotic |  |  |  |  |  |  |  |  | 
C[C@H](CCC(=O)NCCS(=O)(=O)O)[C@H]1CC[C@H]2[C@@H]3CC[C@@H]4C[C@H](OS(=O)(=O)O)CC[C@]4(C)[C@H]3CC[C@]12C [Taurolithocholic Acid 3-sulfate, taurolithocholic acid 3-sulfate] | > 500 µg/mL | > 500 µg/mL | > 500 µg/mL | > 500 µg/mL | > 500 µg/mL | > 500 µg/mL | > 500 µg/mL | > 260 µg/mL |  | inactive as an antibiotic |  |  |  |  |  |  |  |  | 
GFGSFLGKALKAALKIGANALGGSPQQ-NH2 [CPF, caerulein percursor fragment, Xenopus antimicrobial peptide] |  |  |  |  |  |  |  |  |  |  | 8 to 16 µg/mL | 8 to 16 µg/mL | 8 to 31 µg/mL | 31 to 62 µg/mL | 62 to 125 µg/mL | 62 to 125 µg/mL | > 125 µg/mL | 4 to 8 µg/mL | hemolysis ([11]; 92 μg/ml, 10% erythrocytes in PBS, 37° C., ten minutes, Triton X-100 = 100%, 10 min): 3%
Magainin II |  |  |  |  |  |  |  |  |  |  | 31 to 62 µg/mL | > 250 µg/mL | 31 to 62 µg/mL | > 250 µg/mL | 125 to 250 µg/mL | 125 to 250 µg/mL | > 250 µg/mL | 33 to 65 µg/mL | antimicrobial activity after proteinase K digestion [12]: lost all activity on proteinase K digestion
